# Test results published in paper PMC9025336 (Antibiotics, 2022).
# Peptide text beside a SMILES is read from it. * marks the point of attachment. Orn(α-tetramethylguanidino) = CN(C)C(=N[C@@H](CCCN)C(=O)*)N(C)C
# Experiments:
# [1] = tested on: E. coli BL21 (DE3) RIL ribosome extract; details: values published for E. coli BL21 (DE3) RIL ribosome extract; read-out: Ki, cf-Onc112; cited from earlier work
# From the text: Table 2 Antibacterial activities, dissociation (Kd), and inhibition constants (Ki) of ribosome binding obtained for all PrAMPs included in the current study for E. coli strains BW25113 (BW) and Rosetta DE3 pLysS (Ros). | column: Ki [µmol/L] *** / cf-Onc112
# [2] = tested on: E. coli BL21 (DE3) RIL ribosome extract; details: values published for E. coli BL21 (DE3) RIL ribosome extract; read-out: Kd (printed in column Ros); cited from earlier work
# From the text: Table 2 Antibacterial activities, dissociation (Kd), and inhibition constants (Ki) of ribosome binding obtained for all PrAMPs included in the current study for E. coli strains BW25113 (BW) and Rosetta DE3 pLysS (Ros). | column: Kd [µmol/L] ** / Ros
# [3] = tested on: 70S ribosome, ribosomal binding site of Api88; test: Fluorescence polarization competition with cf-Api88; set-up: species or system Escherichia coli; details: Figure S3, twice in triplicate
# Description: Ki was determined for ribosome extracts using cf-labeled and unlabeled peptides in ribosome preparation buffer. Black 384-well plates were prepared as described above. Unlabeled peptides or antibiotics (20 µL, 656 µmol/L) were added and 2-fold serially diluted in 23 wells in ribosome preparation buffer. A ribosome solution was prepared by adjusting the ribosome concentration to ~90% of the upper Kd plateau obtained for the cf-labeled peptide to be studied and added to each well (10 µL). After incubation (28 ± 1 °C, 90 min), the cf-labeled peptide (10 µL, 80 nmol/L) was added and incubated (28 ± 1 °C, 90 min). The fluorescence polarization was measured on a […] microplate reader in the top read position (λexc = 485 nm, λem = 535 nm) in triplicate on at least two different days. Data were fitted to a nonlinear, dose–response logistical transition equation [y= y0 + a/(1 + (x/x0)b)] using the Levenberg–Marquardt algorithm, with the half-maximal inhibition constants (IC50) represented by the x0 coefficients (GraphPad Prism for Windows v. 5.02, San Diego, CA, USA). Inhibition constants, Ki, were calculated as described by Mathias and Jung.
# Pept ide Concent r at ion [ nM]
# Figure S3. Fluorescence polarization assay testing Api88 an d Api137 in competition with cf-Api88 and cf-Api137, respectively, for the corresponding ribosomal binding sites. Experiments were done twice in triplicates. […]
# [4] = tested on: E. coli BW25113 ΔsbmA +psbmA; assay type: cell-based, Escherichia coli
# Description: (§1) The minimal inhibitory concentrations (MIC) were determined at least twice in triplicate using a liquid broth microdilution assay in sterile 96-well plates and a total volume of 100 μL per well. Aqueous peptide solutions were serially 2-fold diluted in 25% MHBII or 33% TSB medium in a volume of 50 µL. An overnight culture was diluted in 25% MHBII or 33% TSB medium to 1.5 × 10^7 CFU/mL, and an aliquot of 50 μL was added to each well. The final cell count in each well was 7.5 × 10^6 CFU/mL. The plates were incubated at 37 °C for 20 ± 2 h. The turbidity of each well was measured at a wavelength of 600 nm. The MIC was defined as the lowest peptide concentration where the turbidity was identical to medium only.
# E. coli BW25113 ΔsbmA = assay type: cell-based, Escherichia coli
# Description: as §1
# [5] = tested on: E. coli BL21 (DE3) sbmA::Tn10^Cm + psbmA_A31G/G219T; assay type: cell-based, Escherichia coli
# Description: as §1
# (§2) E. coli strain BL21(DE3) was randomly mutagenized by Tn10 insertion using the lambda phage lysate λNK1324 carrying a chloramphenicol resistance and grown on LB agar plates in the presence of chloramphenicol (15 µg/mL) at 30 °C overnight. The resistant colonies were transferred to 25% MHBII agar plates containing Api137 (32 or 64 µg/mL) and incubated again at 37 °C overnight. Genomic DNA was isolated by a Monarch® Genomic DNA purification kit (New England Biolabs, Frankfurt am Main, Germany) from the presumed double-resistant strains, and the sequences flanking the transposon insertion were determined by arbitrary primed PCR using arbitrary primer ARB6 and Tn10 transposon-specific primer IS10-R complementary to the IS10 element of Tn10 transposon. The first round of amplification included six cycles of denaturation (95 °C, 30 s), annealing (30 °C, 30 s), and extension (72 °C, 90 s), followed by 30 cycles of denaturation (95 °C, 30 s), annealing (45°C, 30 s), and extension (72 °C, 2 min), as well as a final extension (72 °C, 6 min). The second round of amplification used arbitrary primer ARB2 and primer IS10-R. The PCR consisted of 30 cycles of denaturation (95 °C, 30 s), annealing (52 °C, 30 s), and extension (72 °C, 2 min), followed by a final extension step (72 °C, 6 min). PCR products were purified with the NucleoSpin® Gel and a PCR cleanup kit (Macherey-Nagel, Düren, Germany) and sequenced using primer IS10-R (Eurofins MWG Operon, Ebersberg, Germany), and the corresponding protein was identified in a sequence database (UniProt and NCBI, 2021).
# [6] = tested on: E. coli BL21 (DE3) sbmA::Tn10^Cm + psbmA; assay type: cell-based, Escherichia coli
# Description: as §1, §2
# in vitro = details: E. coli BW25113 lysate
# Description: (§3) Peptides (7.5 µg) were mixed with lysates of E. coli Rosetta pLysS or E. coli BW25113 (protein concentration ~0.5 g/L) and incubated on an orbital shaker (37 °C, 750 rpm). After 0, 4, 8 and 24 h, aliquots were taken in duplicate or triplicate, and trichloroacetic acid was added to achieve a final concentration of 3% (v/v). Samples were incubated on ice (10 min) and centrifuged (13,000× g, 5 min). The supernatant was neutralized with aqueous sodium hydroxide (1 mol/L) and stored at −20 °C. Samples were separated on an ACQUITY arc system (Waters GmbH, Eschborn, Germany) using a Jupiter C18 column (ID: 2 mm). Elution was achieved using a linear aqueous acetonitrile gradient containing 0.1% (v/v) formic acid. The absorbance was recorded on a 2489 UV/VIS detector at 214 nm (Waters GmbH), and mass spectra were acquired online with an ion trap mass spectrometer equipped with an electrospray ionization source (ESI-IT-MS, Esquire HCT, Bruker Daltonics, Billerica, MA, USA). Peptide recoveries and the corresponding metabolites were calculated based on the peak areas (UV) of the initial peptide peak area at 0 min.
# [7] = E. coli Rosetta pLysS lysate, protein ~0.5 g/L; 37 °C; RP-HPLC UV 214 nm
# Description: as §3
# [8] = 25% MHBII containing IPTG (0.1 mmol/L)
# [9] = 33% TSB containing IPTG (0.1 mmol/L)
smiles,measurement,setting,value
CC[C@H](C)[C@H](NC(=O)[C@H](Cc1ccc(O)cc1)NC(=O)[C@@H](NC(=O)[C@@H]1CCCN1C(=O)[C@H](CCCNC(=N)N)NC(=O)[C@H](CC(N)=O)NC(=O)[C@H](CC(N)=O)NC(=O)[C@H](CCCN)N=C(N(C)C)N(C)C)C(C)C)C(=O)N1CCC[C@H]1C(=O)N[C@@H](CCCNC(=N)N)C(=O)N1CCC[C@H]1C(=O)N[C@@H](CCCNC(=N)N)C(=O)N1CCC[C@H]1C(=O)N1CCC[C@H]1C(=O)N[C@@H](Cc1c[nH]cn1)C(=O)N1CCC[C@H]1C(=O)N[C@@H](CCCNC(=N)N)C(=O)N[C@@H](CC(C)C)C(N)=O [Api88] ({Orn(α-tetramethylguanidino)}-NNRPVYIPRPRPPHPRL-NH2),Ki,[1],110 nM
same,Kd,[2],1220 nM
same,inhibition of the binding of cf-labeled Api88,[3],did not inhibit
CC[C@H](C)[C@H](NC(=O)[C@H](Cc1ccc(O)cc1)NC(=O)[C@@H](NC(=O)[C@@H]1CCCN1C(=O)[C@H](CCCNC(=N)N)NC(=O)[C@H](CC(N)=O)NC(=O)[C@H](CC(N)=O)NC(=O)[C@H](CCCN)N=C(N(C)C)N(C)C)C(C)C)C(=O)N1CCC[C@H]1C(=O)N[C@@H](CCCNC(=N)N)C(=O)N1CCC[C@H]1C(=O)N[C@@H](CCCNC(=N)N)C(=O)N1CCC[C@H]1C(=O)N1CCC[C@H]1C(=O)N[C@@H](Cc1c[nH]cn1)C(=O)N1CCC[C@H]1C(=O)N[C@@H](CCCNC(=N)N)C(=O)N[C@@H](CC(C)C)C(=O)O [Api137] ({Orn(α-tetramethylguanidino)}-NNRPVYIPRPRPPHPRL-OH),"MIC, 25% MHBII",[4]; [8],4 µg/mL
same,"MIC, 33% TSB",[4]; [9],8 µg/mL
same,"MIC, 25% MHBII",E. coli BW25113 ΔsbmA; [8],8 µg/mL
same,"MIC, 33% TSB",E. coli BW25113 ΔsbmA; [9],64 µg/mL
same,"MIC, 25% MHBII",[5]; [8],4 µg/mL
same,"MIC, 33% TSB",[5]; [9],8 µg/mL
same,"MIC, 25% MHBII",[6]; [8],8 µg/mL
same,"MIC, 33% TSB",[6]; [9],8 µg/mL
CC[C@H](C)[C@H](NC(=O)[C@@H]1CCCN1C(=O)[C@H](CCCNC(=N)N)NC(=O)[C@H](CC(N)=O)NC(=O)[C@H](CC(N)=O)NC(=O)CN)C(=O)N[C@@H](Cc1ccc(O)cc1)C(=O)N[C@H](C(=O)N1CCC[C@H]1C(=O)N[C@@H](CCCNC(=N)N)C(=O)N1CCC[C@H]1C(=O)N[C@@H](CCCNC(=N)N)C(=O)N1CCC[C@H]1C(=O)N1CCC[C@H]1C(=O)N[C@@H](Cc1c[nH]cn1)C(=O)N1CCC[C@H]1C(=O)N[C@@H](CCCNC(=N)N)C(=O)N1CCC[C@H]1C(=O)N[C@H](C(=O)N[C@@H](CCCNC(=N)N)C(=O)N[C@H](C(=O)O)C(C)C)[C@@H](C)CC)[C@@H](C)CC [Api805] (H-GNNRPIYIPRPRPPHPRPIRV-OH; N-terminus assumed),half-life,in vitro,> 24 h
same,half-life time in lysate,[7],> 24 h
